Reference: ChEMBL document CHEMBL3045122, “Synthesis, in vitro antimicrobial, antiproliferative, and QSAR studies of N-(substituted phenyl)-2/4-(1H-indol-3-ylazo)-benzamides” (Med Chem Res, 2013)

Key:
Bacillus subtilis [1] = assay: Antibacterial activity against Bacillus subtilis assessed as growth inhibition after 24 hr by tube dilution method; format: functional
Escherichia coli [2] = assay: Bactericidal activity against Escherichia coli; format: functional
P388 [3] = assay: Ratio of 5-Fluorouracil IC50 to compound IC50 for Mus musculus (mouse) P388 cells; format: functional
HCT-116 [4] = assay: Cytotoxicity against Homo sapiens (human) HCT116 cells assessed as growth inhibition after 72 hr by MTT assay; format: functional, cell-based
Staphylococcus aureus [5] = assay: Antibacterial activity against Staphylococcus aureus assessed as growth inhibition after 24 hr by tube dilution method; format: functional
Aspergillus niger [6] = assay: Antifungal activity against Aspergillus niger assessed as growth inhibition after 7 days by tube dilution method; format: functional
Candida albicans [7] = assay: Antifungal activity against Candida albicans assessed as growth inhibition after 48 hr by tube dilution method; format: functional
Escherichia coli [8] = assay: Ratio of MBC to MIC for Escherichia coli; format: functional
Candida albicans [9] = assay: Ratio of MFC to MIC for Candida albicans; format: functional
P388 [10] = assay: Cytotoxicity against Mus musculus (mouse) P388 cells assessed as growth inhibition after 72 hr by MTT assay; format: functional, cell-based
Staphylococcus aureus [11] = assay: Ratio of MBC to MIC for Staphylococcus aureus; format: functional
Escherichia coli [12] = assay: Antibacterial activity against Escherichia coli assessed as growth inhibition after 24 hr by tube dilution method; format: functional
Bacillus subtilis [13] = assay: Ratio of MBC to MIC for Bacillus subtilis; format: functional
Aspergillus niger [14] = assay: Ratio of MFC to MIC for Aspergillus niger; format: functional
Aspergillus niger [15] = assay: Fungicidal activity against Aspergillus niger; format: functional
Candida albicans [16] = assay: Fungicidal activity against Candida albicans; format: functional
Staphylococcus aureus [17] = assay: Bactericidal activity against Staphylococcus aureus; format: functional
MCF7 = assay: Cytotoxicity against Homo sapiens (human) MCF7 cells assessed as growth inhibition after 72 hr by MTT assay; format: functional, cell-based
Bacillus subtilis [18] = assay: Bactericidal activity against Bacillus subtilis; format: functional
HCT-116 [19] = assay: Ratio of 5-Fluorouracil IC50 to compound IC50 for Homo sapiens (human) HCT116 cells; format: functional

Compound | -logMIC (Bacillus subtilis [1]) | MBC (Escherichia coli [2]) [uM/ml] | Ratio IC50 (P388 [3]) | IC50 (HCT-116 [4]) [uM/ml] | -logMIC (Staphylococcus aureus [5]) | -logMIC (Aspergillus niger [6]) | -logMIC (Candida albicans [7]) | Ratio (Escherichia coli [8]) | Ratio (Candida albicans [9]) | IC50 (P388 [10]) [uM/ml] | Ratio (Staphylococcus aureus [11]) | -logMIC (Escherichia coli [12]) | Ratio (Bacillus subtilis [13]) | Ratio (Aspergillus niger [14]) | MFC (Aspergillus niger [15]) [uM/ml] | MFC (Candida albicans [16]) [uM/ml] | MBC (Staphylococcus aureus [17]) [uM/ml] | IC50 (MCF7) [uM/ml] | MBC (Bacillus subtilis [18]) [uM/ml] | Ratio IC50 (HCT-116 [19])
Cc1cccc(NC(=O)c2ccc(/N=N\c3c[nH]c4ccccc34)cc2)c1 | 1.75 | >0.14 | 73 | 0.0989 | 1.45 | 1.45 | 1.45 | 3 | 3 | 0.0003 | 3 | 1.75 | 3 | 3 | 0.04 | 0.04 | >0.14 | 0.0734 | >0.14 | 
O=C(Nc1ccc([N+](=O)[O-])cc1)c1ccc(/N=N\c2c[nH]c3ccccc23)cc1 | 1.49 | >0.13 |  | 0.1558 | 1.79 | 1.49 | 1.49 | 3 | 3 | 0.0112 | 3 | 1.79 | 3 | 3 | 0.03 | 0.13 | >0.13 | 0.0545 | >0.13 | 
Cc1ccc(NC(=O)c2ccc(/N=N\c3c[nH]c4ccccc34)cc2)cc1 | 1.45 | >0.14 | 73 | 0.0254 | 1.45 | 1.45 | 1.45 | 3 | 3 | 0.0003 | 3 | 1.45 | 3 | 3 | 0.04 | >0.14 | >0.14 | 0.0424 | >0.14 | 1.8
Cc1cccc(NC(=O)c2ccc(/N=N\c3c[nH]c4ccccc34)cc2)c1C | 1.47 | >0.14 |  | 0.2717 | 1.77 | 1.47 | 1.47 | 3 | 3 | 0.0516 | 3 | 1.47 | 3 | 3 | 0.03 | >0.14 | >0.14 | 0.106 | >0.14 | 
